Legend:
[1] = system: MDCK; test: Permeability in MDCK cells expressing MDR1; assay type: ADME, cell-based, Canis lupus familiaris; settings: dog
[2] = system: Brain; test: Drug uptake in brain of MDR1 a/b(-/-) and P-gp competant wild-type FVB mouse at 1 mg/kg, iv after 5 mins; assay type: ADME, organism-based; design: dose 1 mg/kg, route intravenous; settings: in vivo
[3] = target: T1, Leucine-rich repeat serine/threonine-protein kinase 2 (Homo sapiens, UniProt Q5S007, G2019S); test: Inhibition of LRRK2 G2019S mutant (unknown origin) Ser935 phosphorylation expressed in HEK293 cells by cell-based assay
[4] = target: T1, Leucine-rich repeat serine/threonine-protein kinase 2; test: Inhibition of GST-tagged LRRK2 G2019S mutant (970-2527 amino acids) (unknown origin) assessed as inhibition of LRRKtide phosphorylation by HTRF assay
[5] = target: Leucine-rich repeat serine/threonine-protein kinase 2 (Homo sapiens, UniProt Q5S007); test: Inhibition of wild type GST-tagged LRRK2 (970-2527 amino acids)(unknown origin) assessed as inhibition of LRRKtide phosphorylation by HTRF assay
[6] = target: RAC-alpha serine/threonine-protein kinase (Homo sapiens) (UniProt P31749); test: Inhibition of AKT1 (unknown origin) at 1 uM by single point assay
[7] = target: T2, Interleukin-1 receptor-associated kinase 4 (Homo sapiens) (UniProt Q9NWZ3); test: Inhibition of IRAK4 (unknown origin) at 1 uM by single point assay
T2 sequence (whole entry): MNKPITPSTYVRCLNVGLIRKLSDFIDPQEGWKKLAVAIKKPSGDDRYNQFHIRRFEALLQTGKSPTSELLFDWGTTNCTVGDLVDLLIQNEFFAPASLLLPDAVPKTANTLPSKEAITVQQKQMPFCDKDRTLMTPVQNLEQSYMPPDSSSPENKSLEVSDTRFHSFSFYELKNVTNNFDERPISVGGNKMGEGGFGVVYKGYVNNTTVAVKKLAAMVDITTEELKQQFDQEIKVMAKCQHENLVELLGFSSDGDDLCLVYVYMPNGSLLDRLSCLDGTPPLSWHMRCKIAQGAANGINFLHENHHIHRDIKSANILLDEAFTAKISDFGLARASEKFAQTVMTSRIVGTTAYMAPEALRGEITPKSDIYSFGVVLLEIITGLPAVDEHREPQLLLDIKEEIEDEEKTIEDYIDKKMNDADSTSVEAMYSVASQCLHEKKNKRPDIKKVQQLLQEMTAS

[8] = target: T3, Aurora kinase A (Homo sapiens) (UniProt O14965); test: Inhibition of AURKA (unknown origin) at 1 uM by single point assay
T3 sequence (whole entry): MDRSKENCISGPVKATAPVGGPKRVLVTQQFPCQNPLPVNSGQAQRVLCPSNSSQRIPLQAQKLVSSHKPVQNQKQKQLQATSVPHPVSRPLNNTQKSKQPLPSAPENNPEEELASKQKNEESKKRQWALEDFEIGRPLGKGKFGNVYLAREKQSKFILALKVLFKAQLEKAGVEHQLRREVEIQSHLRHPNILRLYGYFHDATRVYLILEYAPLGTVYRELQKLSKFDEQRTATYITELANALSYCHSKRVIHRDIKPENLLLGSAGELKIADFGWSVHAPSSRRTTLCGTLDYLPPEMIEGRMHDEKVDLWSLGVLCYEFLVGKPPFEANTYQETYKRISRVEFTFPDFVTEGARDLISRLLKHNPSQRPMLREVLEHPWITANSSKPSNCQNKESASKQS

[9] = target: Serine/threonine-protein kinase PLK2 (Homo sapiens) (UniProt Q9NYY3); test: Inhibition of PLK2 (unknown origin) at 1 uM by single point assay
[10] = target: Cyclin-dependent kinase 1/cyclin B1 (Homo sapiens) (UniProt P06493+P14635); test: Inhibition of CDK1/cyclin B (unknown origin) at 1 uM by single point assay; assay type: protein-complex assay
[11] = target: T4, Serine/threonine-protein kinase Chk1 (Homo sapiens) (UniProt O14757); test: Inhibition of CHK1 (unknown origin) at 1 uM by single point assay
T4 sequence (whole entry): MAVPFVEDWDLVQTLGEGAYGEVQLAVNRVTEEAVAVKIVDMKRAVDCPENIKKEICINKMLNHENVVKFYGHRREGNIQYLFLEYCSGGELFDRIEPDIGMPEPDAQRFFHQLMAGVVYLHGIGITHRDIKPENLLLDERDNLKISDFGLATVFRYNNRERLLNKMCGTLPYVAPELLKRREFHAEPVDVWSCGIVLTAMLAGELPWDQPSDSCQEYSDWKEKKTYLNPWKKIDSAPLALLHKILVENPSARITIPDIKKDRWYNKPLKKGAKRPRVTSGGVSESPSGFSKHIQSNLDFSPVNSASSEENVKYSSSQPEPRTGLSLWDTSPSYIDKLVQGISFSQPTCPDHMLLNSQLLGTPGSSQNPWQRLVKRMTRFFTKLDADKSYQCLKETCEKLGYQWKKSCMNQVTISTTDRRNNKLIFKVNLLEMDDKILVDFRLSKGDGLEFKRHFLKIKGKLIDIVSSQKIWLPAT

[12] = target: Dual specificity tyrosine-phosphorylation-regulated kinase 1B (Homo sapiens) (UniProt Q9Y463); test: Inhibition of DYRK1B (unknown origin) at 1 uM by single point assay
[13] = target: RAF proto-oncogene serine/threonine-protein kinase (Homo sapiens) (UniProt P04049); test: Inhibition of RAF1 (unknown origin) at 1 uM by single point assay
[14] = target: Mitogen-activated protein kinase 1 (Homo sapiens) (UniProt P28482); test: Inhibition of MAPK1 (unknown origin) at 1 uM by single point assay
[15] = target: T5, Mitogen-activated protein kinase kinase kinase 7 (Homo sapiens) (UniProt O43318); test: Inhibition of MAP3K7 (unknown origin) at 1 uM by single point assay
T5 sequence (whole entry): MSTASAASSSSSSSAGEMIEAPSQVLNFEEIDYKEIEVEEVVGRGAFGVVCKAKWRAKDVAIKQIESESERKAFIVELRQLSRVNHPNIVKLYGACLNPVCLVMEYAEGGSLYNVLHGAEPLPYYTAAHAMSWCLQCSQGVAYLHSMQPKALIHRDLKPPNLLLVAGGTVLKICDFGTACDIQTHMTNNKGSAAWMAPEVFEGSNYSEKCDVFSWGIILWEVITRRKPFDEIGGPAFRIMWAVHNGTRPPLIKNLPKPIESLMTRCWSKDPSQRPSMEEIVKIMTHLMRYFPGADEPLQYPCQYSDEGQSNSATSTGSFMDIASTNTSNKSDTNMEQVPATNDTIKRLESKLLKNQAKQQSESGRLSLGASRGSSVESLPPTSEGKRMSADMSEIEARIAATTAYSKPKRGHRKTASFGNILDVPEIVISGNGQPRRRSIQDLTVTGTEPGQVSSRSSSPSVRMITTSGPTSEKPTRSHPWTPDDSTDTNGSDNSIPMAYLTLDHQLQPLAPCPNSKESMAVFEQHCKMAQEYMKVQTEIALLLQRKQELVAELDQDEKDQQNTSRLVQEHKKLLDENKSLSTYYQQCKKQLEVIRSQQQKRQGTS

Chain of Leucine-rich repeat serine/threonine-protein kinase 2 (Homo sapiens, UniProt Q5S007) (Q5S007 whole entry, the tested form may be a part): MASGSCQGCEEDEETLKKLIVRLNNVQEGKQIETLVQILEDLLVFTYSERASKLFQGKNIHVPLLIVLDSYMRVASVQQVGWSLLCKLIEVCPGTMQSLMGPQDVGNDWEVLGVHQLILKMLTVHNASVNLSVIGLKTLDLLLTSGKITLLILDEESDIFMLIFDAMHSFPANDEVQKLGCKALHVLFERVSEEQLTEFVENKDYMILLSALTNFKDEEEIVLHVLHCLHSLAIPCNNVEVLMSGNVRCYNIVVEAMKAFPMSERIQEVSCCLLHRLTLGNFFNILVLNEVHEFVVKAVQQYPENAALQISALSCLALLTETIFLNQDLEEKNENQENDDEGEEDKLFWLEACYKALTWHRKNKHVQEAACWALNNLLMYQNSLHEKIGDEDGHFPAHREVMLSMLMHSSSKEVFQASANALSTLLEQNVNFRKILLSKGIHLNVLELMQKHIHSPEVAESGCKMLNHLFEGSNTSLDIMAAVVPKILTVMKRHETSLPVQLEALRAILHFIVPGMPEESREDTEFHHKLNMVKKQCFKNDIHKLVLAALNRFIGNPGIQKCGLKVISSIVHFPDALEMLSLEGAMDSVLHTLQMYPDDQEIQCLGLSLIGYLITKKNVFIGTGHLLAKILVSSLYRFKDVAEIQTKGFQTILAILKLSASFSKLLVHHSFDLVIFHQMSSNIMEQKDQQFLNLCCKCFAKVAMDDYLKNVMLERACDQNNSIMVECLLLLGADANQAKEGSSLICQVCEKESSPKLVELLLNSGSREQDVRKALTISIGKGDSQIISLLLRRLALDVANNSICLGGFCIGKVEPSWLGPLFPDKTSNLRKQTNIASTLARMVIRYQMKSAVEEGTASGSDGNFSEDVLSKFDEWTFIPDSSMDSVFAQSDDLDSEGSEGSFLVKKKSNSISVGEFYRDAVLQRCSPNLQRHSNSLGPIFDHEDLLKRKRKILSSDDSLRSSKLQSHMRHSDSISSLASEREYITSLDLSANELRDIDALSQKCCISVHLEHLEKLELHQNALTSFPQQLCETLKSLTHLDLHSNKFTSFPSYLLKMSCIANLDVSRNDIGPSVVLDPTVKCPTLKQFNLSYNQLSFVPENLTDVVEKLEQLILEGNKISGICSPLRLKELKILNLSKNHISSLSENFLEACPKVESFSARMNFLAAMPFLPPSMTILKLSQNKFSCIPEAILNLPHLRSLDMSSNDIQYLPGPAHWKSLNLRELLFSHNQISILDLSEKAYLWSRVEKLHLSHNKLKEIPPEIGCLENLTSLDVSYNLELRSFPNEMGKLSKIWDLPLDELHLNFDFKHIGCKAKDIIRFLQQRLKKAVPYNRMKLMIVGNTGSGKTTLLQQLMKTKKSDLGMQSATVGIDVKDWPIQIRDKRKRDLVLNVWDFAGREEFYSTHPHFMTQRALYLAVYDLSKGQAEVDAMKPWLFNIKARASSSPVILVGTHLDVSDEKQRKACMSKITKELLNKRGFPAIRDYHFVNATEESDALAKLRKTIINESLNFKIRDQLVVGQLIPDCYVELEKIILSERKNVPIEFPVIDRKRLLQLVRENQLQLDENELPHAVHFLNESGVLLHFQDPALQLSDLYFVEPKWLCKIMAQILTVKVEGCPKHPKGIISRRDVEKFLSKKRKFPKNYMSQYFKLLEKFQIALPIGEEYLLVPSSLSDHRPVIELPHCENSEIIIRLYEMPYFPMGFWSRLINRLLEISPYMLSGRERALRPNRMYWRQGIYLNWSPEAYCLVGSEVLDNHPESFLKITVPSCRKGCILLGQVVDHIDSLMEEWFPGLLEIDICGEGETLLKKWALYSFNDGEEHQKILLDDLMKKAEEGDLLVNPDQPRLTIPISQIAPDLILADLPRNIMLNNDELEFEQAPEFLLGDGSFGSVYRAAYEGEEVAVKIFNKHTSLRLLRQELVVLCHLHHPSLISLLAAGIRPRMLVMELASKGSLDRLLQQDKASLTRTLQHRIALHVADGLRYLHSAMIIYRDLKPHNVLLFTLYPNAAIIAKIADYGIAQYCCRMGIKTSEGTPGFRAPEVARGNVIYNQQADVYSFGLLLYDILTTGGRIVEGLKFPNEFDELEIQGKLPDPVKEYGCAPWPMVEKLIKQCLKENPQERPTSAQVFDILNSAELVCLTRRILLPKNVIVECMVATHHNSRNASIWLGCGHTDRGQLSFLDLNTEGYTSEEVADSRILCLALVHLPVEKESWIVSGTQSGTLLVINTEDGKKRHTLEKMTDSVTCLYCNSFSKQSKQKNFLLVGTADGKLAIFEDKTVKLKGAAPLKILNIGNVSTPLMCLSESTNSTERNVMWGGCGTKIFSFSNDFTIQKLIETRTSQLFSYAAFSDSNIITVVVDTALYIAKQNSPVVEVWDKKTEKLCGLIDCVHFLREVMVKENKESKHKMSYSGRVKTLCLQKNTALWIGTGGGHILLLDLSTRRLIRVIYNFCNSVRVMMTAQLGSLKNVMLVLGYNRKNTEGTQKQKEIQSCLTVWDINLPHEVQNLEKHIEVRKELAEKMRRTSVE
T1 sequence (Q5S007 whole entry G2019S, the tested form may be a part): as the sequence (Q5S007 whole entry, the tested form may be a part) above, with G2019S counted along it
Chain of Dual specificity tyrosine-phosphorylation-regulated kinase 1B (Homo sapiens) (Q9Y463 whole entry, looked up): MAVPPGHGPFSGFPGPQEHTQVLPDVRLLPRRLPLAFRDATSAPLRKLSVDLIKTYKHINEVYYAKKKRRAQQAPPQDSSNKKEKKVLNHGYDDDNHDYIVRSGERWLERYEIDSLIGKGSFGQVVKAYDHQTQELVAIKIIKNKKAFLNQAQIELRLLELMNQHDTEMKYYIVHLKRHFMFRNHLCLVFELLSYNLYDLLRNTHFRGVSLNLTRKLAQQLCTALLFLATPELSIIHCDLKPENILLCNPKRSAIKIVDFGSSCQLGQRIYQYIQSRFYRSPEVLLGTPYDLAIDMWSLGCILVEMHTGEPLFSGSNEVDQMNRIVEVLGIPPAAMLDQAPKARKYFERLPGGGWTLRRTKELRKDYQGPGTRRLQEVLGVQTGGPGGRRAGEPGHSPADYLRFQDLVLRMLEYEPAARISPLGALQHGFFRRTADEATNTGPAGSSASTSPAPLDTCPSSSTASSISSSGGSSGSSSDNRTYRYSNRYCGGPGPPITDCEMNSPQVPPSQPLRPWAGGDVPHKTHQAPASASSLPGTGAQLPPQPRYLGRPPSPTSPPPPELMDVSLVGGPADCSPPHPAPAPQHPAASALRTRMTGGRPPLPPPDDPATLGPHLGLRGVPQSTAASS
Chain of Mitogen-activated protein kinase 1 (Homo sapiens) (P28482 whole entry): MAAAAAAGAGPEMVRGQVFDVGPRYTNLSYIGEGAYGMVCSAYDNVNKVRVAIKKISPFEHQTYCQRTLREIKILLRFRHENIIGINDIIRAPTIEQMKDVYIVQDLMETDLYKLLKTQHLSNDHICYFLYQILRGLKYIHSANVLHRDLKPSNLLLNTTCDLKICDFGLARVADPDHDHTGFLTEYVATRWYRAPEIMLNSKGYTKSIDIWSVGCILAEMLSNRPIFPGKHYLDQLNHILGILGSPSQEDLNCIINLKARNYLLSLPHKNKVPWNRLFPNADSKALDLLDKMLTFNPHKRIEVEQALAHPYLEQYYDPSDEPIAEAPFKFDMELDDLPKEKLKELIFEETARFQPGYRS
Chain of RAF proto-oncogene serine/threonine-protein kinase (Homo sapiens) (P04049 whole entry): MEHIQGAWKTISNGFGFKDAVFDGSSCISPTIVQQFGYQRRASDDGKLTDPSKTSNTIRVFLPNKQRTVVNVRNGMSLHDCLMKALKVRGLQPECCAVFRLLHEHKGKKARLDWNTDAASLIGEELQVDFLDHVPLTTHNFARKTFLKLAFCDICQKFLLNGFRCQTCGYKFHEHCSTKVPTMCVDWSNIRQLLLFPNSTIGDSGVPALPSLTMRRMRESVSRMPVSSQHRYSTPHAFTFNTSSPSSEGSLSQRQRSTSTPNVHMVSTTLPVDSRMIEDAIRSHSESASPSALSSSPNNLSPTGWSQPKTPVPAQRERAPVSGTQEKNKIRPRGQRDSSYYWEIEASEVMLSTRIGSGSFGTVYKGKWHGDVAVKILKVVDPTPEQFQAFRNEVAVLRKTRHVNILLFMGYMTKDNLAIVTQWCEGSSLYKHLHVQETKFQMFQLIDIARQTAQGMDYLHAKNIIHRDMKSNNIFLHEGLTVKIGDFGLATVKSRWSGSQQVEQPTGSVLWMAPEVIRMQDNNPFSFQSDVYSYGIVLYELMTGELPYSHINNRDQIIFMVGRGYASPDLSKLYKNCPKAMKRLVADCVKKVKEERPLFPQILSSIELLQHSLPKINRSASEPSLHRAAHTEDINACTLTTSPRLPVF
Chain of Serine/threonine-protein kinase PLK2 (Homo sapiens) (Q9NYY3 whole entry, looked up): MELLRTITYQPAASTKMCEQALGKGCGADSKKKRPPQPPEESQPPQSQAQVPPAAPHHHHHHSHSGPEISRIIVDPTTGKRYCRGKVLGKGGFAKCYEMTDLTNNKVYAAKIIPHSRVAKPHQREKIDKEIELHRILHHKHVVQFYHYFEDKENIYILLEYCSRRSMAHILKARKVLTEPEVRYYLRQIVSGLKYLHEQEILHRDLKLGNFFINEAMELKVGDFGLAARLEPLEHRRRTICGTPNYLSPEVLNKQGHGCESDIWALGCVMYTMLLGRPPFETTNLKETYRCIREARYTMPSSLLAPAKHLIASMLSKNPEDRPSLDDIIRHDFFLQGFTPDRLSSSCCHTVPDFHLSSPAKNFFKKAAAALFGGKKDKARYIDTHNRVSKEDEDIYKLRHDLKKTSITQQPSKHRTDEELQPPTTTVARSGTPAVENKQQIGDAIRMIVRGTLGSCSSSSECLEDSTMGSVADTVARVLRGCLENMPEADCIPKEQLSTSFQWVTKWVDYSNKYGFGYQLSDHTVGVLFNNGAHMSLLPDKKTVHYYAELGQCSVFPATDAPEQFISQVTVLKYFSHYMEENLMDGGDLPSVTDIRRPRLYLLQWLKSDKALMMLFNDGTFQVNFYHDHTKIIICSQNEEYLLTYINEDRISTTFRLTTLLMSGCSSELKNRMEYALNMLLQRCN

permeability [1]	Drug uptake [2]	EC50 [3]	IC50 [4]	IC50 [5]	inhibition [6]	inhibition [7]	inhibition [8]	inhibition [9]	inhibition [10]	inhibition [11]	inhibition [12]	inhibition [13]	inhibition [14]	inhibition [15]	Structure (SMILES)
impermeable	Active	731 nM	27 nM	48 nM											C[C@@H](Nc1c(C#N)cnc2cc(-c3ccc(-n4ccoc4=O)cc3)ccc12)C1CC1
impermeable	Active	435 nM	28 nM	31 nM	10%	29%	71%	73%	12%	36%	49%	3%	10%	7%	CC(C)Nc1c(C#N)cnc2cc(-c3ccc(S(C)(=O)=O)cc3)ccc12
impermeable	Active	140 nM	5 nM	7 nM	0%	68%	89%	89%	14%	64%	49%	12%	-2%	51%	CC(C)Nc1c(C#N)cnc2cc(-c3cnn(C)c3)ccc12
